Values joined by “and” are separate entries in the source; they are usually repeats but may differ in a detail not shown here. Equal entries are not always repeated.
Legend:
[1] = Pharmacokinetics in whole blood, cynomolgus monkeys; conditions: male, cynomolgus monkey, in vivo, 300 mg/kg, fosmetpantotenate 300 mg/kg oral, blood
Protocol: The whole blood samples (0.5 mL) were collected into syringes that were prefilled with 2.5 mL of ice-cold 0.1% formic acid in acetonitrile. The volume ratio of the whole blood to 0.1% formic acid in acetonitrile was 1/5 (v/v). Samples were frozen (-70°C) until analyzed by LC-MS/MS.
Standard curves and quality control (QC) samples were prepared fresh on the day of analysis by serial dilution of the standard mixture in quenched whole blood (1 part of blood to 5 parts of 0.1% formic acid in acetonitrile) and centrifuged. […] The frozen study samples were thawed in an ice/water bath and centrifuged. Supernatant (50 μL) from standards, QC samples, and study samples was transferred to a 96-well plate and dried completely under nitrogen. The dried residues were reconstituted with 100 μL of 0.1% formic acid in water containing internal standard (5 ng/mL of ^15N/^13C3-RE-024-02) and analyzed by LC-MS/MS.
LC-MS/MS analysis for blood pharmacokinetic samples: Samples were analyzed using an Agilent 1100 binary pump (Agilent Technologies, Santa Clara, CA, USA), connected to an AB Sciex API 6500 mass spectrometer (SCIEX, Framingham, MA, USA). An electrospray ionization source was used, scanning in the positive mode. […] The chromatography column was a Varian Metasil AQ 120–5 C18 column, 5 μm, 50 x 2.00 mm (Part No. A0530050X020) at ambient temperature, with a 0.5 mL/min flow rate and a 20 μL injection volume. Mobile phase (A) consisted of 0.1% formic acid in water; while mobile phase (B) consisted of 0.1% formic acid in acetonitrile:water (9:1, v/v).
Quantitation of in vivo samples: Peak areas were integrated using Analyst software (AB Sciex, Concord, Ontario, Canada). […] Calibration standards (at a minimum 7 per curve) were fit by linear regression with (1/x^2) weighting. QC samples were used (triplicate) at 3 concentrations for all tandem mass spectrometry (MS/MS) runs.
Pharmacokinetic calculations: PK analysis was performed using Phoenix WinNonlin®, Build 6.3.0.395 (Certara, Princeton, NJ, USA) using a non-compartmental model (PO dose = model 200 for extravascular dosing). […] Post-dose concentrations below the limit of quantitation (BLQ) were omitted from calculation.

[2] = Pharmacokinetics in whole blood, Sprague-Dawley rats; conditions: male Sprague-Dawley rats, blood, BQL <1.26 nM
[3] = Fosmetpantotenate Mean Conc., male cynomolgus monkeys
[4] = Fosmetpantotenate blood concentration, Cyno #1, male cynomolgus monkeys
[5] = Fosmetpantotenate blood concentration, Cyno #2, male cynomolgus monkeys

COC(=O)CCNC(=O)[C@H](O)C(C)(C)COP(=O)(N[C@@H](C)C(=O)OC)Oc1ccccc1 (mixture of isomers) [Fosmetpantotenate]
concentration at 0.167 h [1, 3]: 906 nM | concentration at 0.333 h [1, 3]: 550 nM | concentration at 0.5 h [1, 3]: 376 nM | concentration at 1 h [1, 3]: 18700 nM | concentration at 2 h [1, 3]: 13200 nM | concentration at 4 h [1, 3]: 249 nM | concentration at 0.083 h [1, 4]: 41.9 nM | concentration at 0.167 h [1, 4]: 93.8 nM | concentration at 0.333 h [1, 4]: 128 nM | concentration at 0.5 h [1, 4]: 211 nM | concentration at 1 h [1, 4]: 9950 nM | concentration at 2 h [1, 4]: 3460 nM | concentration at 4 h [1, 4]: 231 nM | concentration at 0.083 h [1, 5]: 351 nM | concentration at 0.167 h [1, 5]: 1720 nM | concentration at 0.333 h [1, 5]: 972 nM | concentration at 0.5 h [1, 5]: 541 nM | concentration at 1 h [1, 5]: 27400 nM | concentration at 2 h [1, 5]: 22900 nM | concentration at 4 h [1, 5]: 267 nM | Fosmetpantotenate Conc. ([2]; fosmetpantotenate 100 mg/kg oral, 0.033 hr, individual animals): BQL | Fosmetpantotenate Mean Conc. ([2]; fosmetpantotenate 100 mg/kg oral, 0.033 hr, mean): BQL | Fosmetpantotenate Conc. ([2]; fosmetpantotenate 100 mg/kg oral, 0.083 hr, individual animals): BQL | Fosmetpantotenate Mean Conc. ([2]; fosmetpantotenate 100 mg/kg oral, 0.083 hr, mean): BQL | Fosmetpantotenate Conc. ([2]; fosmetpantotenate 100 mg/kg oral, 0.167 hr, individual animals): BQL | Fosmetpantotenate Mean Conc. ([2]; fosmetpantotenate 100 mg/kg oral, 0.167 hr, mean): BQL | Fosmetpantotenate Conc. ([2]; fosmetpantotenate 100 mg/kg oral, 0.33 hr, individual animals): BQL | Fosmetpantotenate Mean Conc. ([2]; fosmetpantotenate 100 mg/kg oral, 0.33 hr, mean): BQL | Fosmetpantotenate Conc. ([2]; fosmetpantotenate 100 mg/kg oral, 0.5 hr, individual animals): BQL | Fosmetpantotenate Conc. ([2]; fosmetpantotenate 100 mg/kg oral, 1 hr, individual animals): BQL | Fosmetpantotenate Mean Conc. ([2]; fosmetpantotenate 100 mg/kg oral, 1 hr, mean): BQL | Fosmetpantotenate Conc. ([2]; fosmetpantotenate 100 mg/kg oral, 2 hr, individual animals): BQL | Fosmetpantotenate Mean Conc. ([2]; fosmetpantotenate 100 mg/kg oral, 2 hr, mean): BQL | Fosmetpantotenate Conc. ([2]; fosmetpantotenate 100 mg/kg oral, 4 hr, individual animals): BQL | Fosmetpantotenate Conc. ([2]; fosmetpantotenate 100 mg/kg oral, 8 hr, individual animals): BQL | Fosmetpantotenate Mean Conc. ([2]; fosmetpantotenate 100 mg/kg oral, 8 hr, mean): BQL | Fosmetpantotenate Conc. ([2]; fosmetpantotenate 300 mg/kg oral, 0.033 hr, individual animals): 4.15 nM and BQL | Fosmetpantotenate Conc. ([2]; fosmetpantotenate 300 mg/kg oral, 0.083 hr, individual animals): BQL | Fosmetpantotenate Mean Conc. ([2]; fosmetpantotenate 300 mg/kg oral, 0.083 hr, mean): BQL | Fosmetpantotenate Conc. ([2]; fosmetpantotenate 300 mg/kg oral, 0.167 hr, individual animals): 8.83 nM and 22.89 nM and 22.51 nM | Fosmetpantotenate Conc. ([2]; fosmetpantotenate 300 mg/kg oral, 0.33 hr, individual animals): BQL and 64.88 nM and 7.67 nM | Fosmetpantotenate Conc. ([2]; fosmetpantotenate 300 mg/kg oral, 0.5 hr, individual animals): 2.28 nM and BQL and 577.94 nM | Fosmetpantotenate Conc. ([2]; fosmetpantotenate 300 mg/kg oral, 1 hr, individual animals): BQL | Fosmetpantotenate Conc. ([2]; fosmetpantotenate 300 mg/kg oral, 2 hr, individual animals): BQL | Fosmetpantotenate Conc. ([2]; fosmetpantotenate 300 mg/kg oral, 4 hr, individual animals): BQL | Fosmetpantotenate Conc. ([2]; fosmetpantotenate 300 mg/kg oral, 8 hr, individual animals): BQL | Fosmetpantotenate Mean Conc. ([2]; fosmetpantotenate 300 mg/kg oral, 8 hr, mean): BQL | Fosmetpantotenate Conc. ([2]; fosmetpantotenate 700 mg/kg oral, 0.033 hr, individual animals): 2149.90(a) nM and BQL and 114.07 nM | Fosmetpantotenate Conc. ([2]; fosmetpantotenate 700 mg/kg oral, 0.083 hr, individual animals): 518.51 nM and BQL and 1.62 nM | Fosmetpantotenate Conc. ([2]; fosmetpantotenate 700 mg/kg oral, 0.167 hr, individual animals): 28.96 nM and 23269.54(a) nM and 247.87 nM | Fosmetpantotenate Conc. ([2]; fosmetpantotenate 700 mg/kg oral, 0.33 hr, individual animals): 2541.94 nM and 1277.3 nM and 54 nM | Fosmetpantotenate Conc. ([2]; fosmetpantotenate 700 mg/kg oral, 0.5 hr, individual animals): 509.65 nM and 72.84 nM and 84.61 nM | Fosmetpantotenate Conc. ([2]; fosmetpantotenate 700 mg/kg oral, 1 hr, individual animals): 73.35 nM and 63.86 nM and 214.99 nM | Fosmetpantotenate Conc. ([2]; fosmetpantotenate 700 mg/kg oral, 2 hr, individual animals): BQL and 1035.75 nM | Fosmetpantotenate Conc. ([2]; fosmetpantotenate 700 mg/kg oral, 4 hr, individual animals): 419.86 nM and BQL and 32.12 nM | Fosmetpantotenate Conc. ([2]; fosmetpantotenate 700 mg/kg oral, 8 hr, individual animals): BQL | Fosmetpantotenate Mean Conc. ([2]; fosmetpantotenate 700 mg/kg oral, 8 hr, mean): BQL | concentration at 0.5 h ([2]; male, Sprague-Dawley, rat, in vivo, 100 mg/kg, Fosmetpantotenate Conc., fosmetpantotenate 100 mg/kg oral, 0.5 hr, individual animals): 3.31 nM | concentration at 4 h ([2]; male, Sprague-Dawley, rat, in vivo, 100 mg/kg, Fosmetpantotenate Conc., fosmetpantotenate 100 mg/kg oral, 4 hr, individual animals): 2.04 nM | concentration at 0.5 h ([2]; male, Sprague-Dawley, rat, in vivo, 100 mg/kg, Fosmetpantotenate Mean Conc., fosmetpantotenate 100 mg/kg oral, 0.5 hr, mean): 3.31 nM | concentration at 4 h ([2]; male, Sprague-Dawley, rat, in vivo, 100 mg/kg, Fosmetpantotenate Mean Conc., fosmetpantotenate 100 mg/kg oral, 4 hr, mean): 2.04 nM | concentration at 0.033 h ([2]; male, Sprague-Dawley, rat, in vivo, 300 mg/kg, Fosmetpantotenate Conc., fosmetpantotenate 300 mg/kg oral, 0.033 hr, individual animals): 3.9 nM | concentration at 1 h ([2]; male, Sprague-Dawley, rat, in vivo, 300 mg/kg, Fosmetpantotenate Conc., fosmetpantotenate 300 mg/kg oral, 1 hr, individual animals): 6.98 nM | concentration at 2 h ([2]; male, Sprague-Dawley, rat, in vivo, 300 mg/kg, Fosmetpantotenate Conc., fosmetpantotenate 300 mg/kg oral, 2 hr, individual animals): 3.41 nM | concentration at 4 h ([2]; male, Sprague-Dawley, rat, in vivo, 300 mg/kg, Fosmetpantotenate Conc., fosmetpantotenate 300 mg/kg oral, 4 hr, individual animals): 3.69 nM | concentration at 0.033 h ([2]; male, Sprague-Dawley, rat, in vivo, 300 mg/kg, Fosmetpantotenate Mean Conc., fosmetpantotenate 300 mg/kg oral, 0.033 hr, mean): 4.03 nM | concentration at 0.167 h ([2]; male, Sprague-Dawley, rat, in vivo, 300 mg/kg, Fosmetpantotenate Mean Conc., fosmetpantotenate 300 mg/kg oral, 0.167 hr, mean): 18.1 nM | concentration at 0.33 h ([2]; male, Sprague-Dawley, rat, in vivo, 300 mg/kg, Fosmetpantotenate Mean Conc., fosmetpantotenate 300 mg/kg oral, 0.33 hr, mean): 36.3 nM | concentration at 0.5 h ([2]; male, Sprague-Dawley, rat, in vivo, 300 mg/kg, Fosmetpantotenate Mean Conc., fosmetpantotenate 300 mg/kg oral, 0.5 hr, mean): 290 nM | concentration at 1 h ([2]; male, Sprague-Dawley, rat, in vivo, 300 mg/kg, Fosmetpantotenate Mean Conc., fosmetpantotenate 300 mg/kg oral, 1 hr, mean): 6.98 nM | concentration at 2 h ([2]; male, Sprague-Dawley, rat, in vivo, 300 mg/kg, Fosmetpantotenate Mean Conc., fosmetpantotenate 300 mg/kg oral, 2 hr, mean): 3.41 nM | concentration at 4 h ([2]; male, Sprague-Dawley, rat, in vivo, 300 mg/kg, Fosmetpantotenate Mean Conc., fosmetpantotenate 300 mg/kg oral, 4 hr, mean): 3.69 nM | concentration at 2 hr ([2]; male, Sprague-Dawley, rat, in vivo, 700 mg/kg, Fosmetpantotenate Conc., fosmetpantotenate 700 mg/kg oral, 2 hr, individual animals): 663 nM | concentration at 0.033 h ([2]; male, Sprague-Dawley, rat, in vivo, 700 mg/kg, Fosmetpantotenate Mean Conc., fosmetpantotenate 700 mg/kg oral, 0.033 hr, mean): 114 nM | concentration at 0.083 h ([2]; male, Sprague-Dawley, rat, in vivo, 700 mg/kg, Fosmetpantotenate Mean Conc., fosmetpantotenate 700 mg/kg oral, 0.083 hr, mean): 260 nM | concentration at 0.167 hr ([2]; male, Sprague-Dawley, rat, in vivo, 700 mg/kg, Fosmetpantotenate Mean Conc., fosmetpantotenate 700 mg/kg oral, 0.167 hr, mean): 138 nM | concentration at 0.33 hr ([2]; male, Sprague-Dawley, rat, in vivo, 700 mg/kg, Fosmetpantotenate Mean Conc., fosmetpantotenate 700 mg/kg oral, 0.33 hr, mean): 1290 nM | concentration at 0.5 hr ([2]; male, Sprague-Dawley, rat, in vivo, 700 mg/kg, Fosmetpantotenate Mean Conc., fosmetpantotenate 700 mg/kg oral, 0.5 hr, mean): 222 nM | concentration at 1 hr ([2]; male, Sprague-Dawley, rat, in vivo, 700 mg/kg, Fosmetpantotenate Mean Conc., fosmetpantotenate 700 mg/kg oral, 1 hr, mean): 117 nM | concentration at 2 hr ([2]; male, Sprague-Dawley, rat, in vivo, 700 mg/kg, Fosmetpantotenate Mean Conc., fosmetpantotenate 700 mg/kg oral, 2 hr, mean): 849 nM | concentration at 4 h ([2]; male, Sprague-Dawley, rat, in vivo, 700 mg/kg, Fosmetpantotenate Mean Conc., fosmetpantotenate 700 mg/kg oral, 4 hr, mean): 226 nM

Source: article PMC5844530, “Fosmetpantotenate (RE-024), a phosphopantothenate replacement therapy for pantothenate kinase-associated neurodegeneration: Mechanism of action and efficacy in nonclinical models” (PLoS ONE, 2018)
